The test system of data set [1] is Trichophyton mentagrophytes. As to the kind of experiment: Antifungal activity against Trichophyton mentagrophytes DUMC160.03 by CLSI protocol. Format: functional.
In data set [2] the test system is Trichophyton mentagrophytes. Put plainly: Antifungal activity against Trichophyton mentagrophytes DUMC112.02 by CLSI protocol. The data set is classed as functional.
Data set [3] concerns Trichophyton mentagrophytes. As to the kind of experiment: Antifungal activity against Trichophyton mentagrophytes DUMC160.03 infected in human skin at 2 fold MIC administered 30 mins post infection followed by once in every 2 days for 7 days by scanning electron microscopy relative to control. The data set is classed as functional, organism-based.
For data set [4], the system named is Zone of skin. As to the kind of experiment: Toxicity to human skin assessed as damage of skin integrity at 2 fold MIC administered 30 mins post inoculation followed by once in every 2 days for 7 days by scanning electron microscopy. Format: tissue-based.

The structures appear in SMILES notation. Converted amounts (≈) assume the structure as drawn. The source made the active and inactive calls. No cut-off for these calls is given here.

Consider `C/C=C/C[C@@H](C)[C@@H](O)[C@H]1C(=O)N[C@@H](CC)C(=O)N(C)CC(=O)N(C)[C@@H](CC(C)C)C(=O)N[C@@H](C(C)C)C(=O)N(C)[C@@H](CC(C)C)C(=O)N[C@@H](C)C(=O)N[C@H](C)C(=O)N(C)[C@@H](CC(C)C)C(=O)N(C)[C@@H](CC(C)C)C(=O)N(C)[C@@H](C(C)C)C(=O)N1C` [CYCLOSPORINE], for which, in data set [1], the minimal inhibitory concentration (MIC) (as a rule, the least concentration at which growth counts as inhibited) came to 1 µg/mL (≈ 0.832 µM); the MIC80 – broadly, an inhibitory concentration at the 80% level, which refers to growth in some studies and to a panel of isolates in others – turned out to be 8 µg/mL (≈ 6.65 µM). Further, in data set [2], inhibition of growth (MIC) required 2 µg/mL (≈ 1.66 µM) and the MIC80 was found to be 2 µg/mL (≈ 1.66 µM).
As for `OC(Cn1cncn1)(Cn1cncn1)c1ccc(F)cc1F` [FLUCONAZOLE], the outcome in data set [3] was Active. Also, in data set [4], the Activity result is given as “Non-toxic”. Moreover, in data set [1], the minimum inhibitory concentration (MIC) is 8 µg/mL (≈ 26.1 µM) and the MIC80 amounted to 16 µg/mL (≈ 52.2 µM). In data set [2], this compound displayed an MIC of 8 µg/mL (≈ 26.1 µM) and an MIC80 of 16 µg/mL (≈ 52.2 µM).
Take `C=CC[C@@H]1/C=C(\C)C[C@H](C)C[C@H](OC)[C@H]2O[C@@](O)(C(=O)C(=O)N3CCCC[C@H]3C(=O)O[C@H](/C(C)=C/[C@@H]3CC[C@@H](O)[C@H](OC)C3)[C@H](C)[C@@H](O)CC1=O)[C@H](C)C[C@@H]2OC` [TACROLIMUS ANHYDROUS]: the result in data set [3] was inactive. Further, the Activity entry in data set [4] was “Non-toxic”. For the same compound, in data set [1], the minimal inhibitory concentration (MIC) was determined as 1 µg/mL (≈ 1.24 µM) and the MIC80 was determined as 1 µg/mL (≈ 1.24 µM). Moreover, in data set [2], the MIC is 1 µg/mL (≈ 1.24 µM) and the MIC80 worked out at 1 µg/mL (≈ 1.24 µM).
Turning to `CN(C/C=C/C#CC(C)(C)C)Cc1cccc2ccccc12` [TERBINAFINE], the outcome in data set [3] was Active. Further, the Activity entry in data set [4] was “Non-toxic”. In addition, the MIC stood at 0.0312 µg/mL (≈ 0.107 µM) in data set [1] and 0.004 µg/mL (≈ 0.0137 µM) in data set [2].

The values above are taken from ChEMBL document CHEMBL1153835, “Targeting the calcineurin pathway enhances ergosterol biosynthesis inhibitors against Trichophyton mentagrophytes in vitro and in a human skin infection model” (Antimicrob Agents Chemother, 2007).
